The text below walks through data of patent US20180179167A1, “Nrf2 REGULATORS” (GlaxoSmithKline Intellectual Property Development Limited, priority 2015, published 2018).

The test system of this assay is NQO1 specific enzyme activity in BEAS-2B cells. Kind of assay: BEAS-2B NQO1 MTT Assay. The note with it: Homo sapiens, EC50 of NQO1 specific activity induction, 48 hours with compound. It counts as cell-based. The source says: NAD(P)H:quinone oxidoreductase 1 (NQO1), also called DT diaphorase, is a homodimeric FAD-containing enzyme that catalyzes obligatory NAD(P)H-dependent two-electron reductions of quinones and protects cells against the toxic and neoplastic effects of free radicals and reactive oxygen species arising from one-electron reductions. The transcription of NQO1 is finely regulated by Nrf2, and thus NQO1 activity is a good marker for Nrf2 activation. On day one, frozen BEAS-2B cells (ATCC) are thawed in a water bath, counted, and re-suspended at a concentration of 250,000 cells/mL. Fifty microliters of cells are plated in 384 well black clear-bottomed plates. Plates are incubated at 37° C., 5% CO2 overnight. On day two, plates are centrifuged and 50 nL of compound or controls are added to the cells. Plates are then incubated at 37° C., 5% CO2 for 48 hours. On day four, medium is aspirated from the plate and crude cell lysates are made by adding 13 uL of 1× Cell Signaling Technologies lysis buffer with 1 Complete, Mini, EDTA-free Protease Inhibitor Tablet (Roche) for each 10 mL of lysis buffer . After lysis plates are incubated for 20 minutes at room temperature. Two microliters of lysate are removed for use in Cell Titer Glo assay (Promega) and MTT cocktail is prepared (Prochaska et. al. 1998) for measurement of NQO1 activity. Fifty microliters of MTT cocktail is added to each well, plate is centrifuged, and analyzed on an Envision plate reader (Perkin Elmer) using Absorbance 570 nm label for 30 minutes. Product formation is measured kinetically and the EC50 of NQO1 specific activity induction is calculated by plotting the change in absorbance (Delta OD/min) versus the log of compound concentration followed by 3-parameter fitting.
EC50s <1 nM (+++++), EC50s 10 nM-1 nM (++++), EC50s 10-100 nM (+++), EC50s 100 nM-1 uM (++), EC50s 1-10 uM (+), EC50s >10 uM (−), or were not determined (ND).
A word on the EC50: it is the concentration at which the effect is half-maximal. As for `Cc1c(C(CC(=O)O)c2ccc(Cl)c(CN(C)C(=O)OC(C)(C)C)c2)ccc2c1nnn2C` (centres unmarked) [Example 1, 3-[3-({[(tert-Butoxy)carbonyl](methyl)amino}methyl)-4-chlorophenyl]-3-(1,4-dimethyl-1H-1,2,3-benzotriazol-5-yl)propanoic acid], the EC50 lay within 100 to 1000 nM. Take `CN(Cc1cc(C(CC(=O)O)c2ccc3c(c2)nnn3C)ccc1Cl)C(=O)OC1CCCC1` (centres unmarked) [Example 2, 3-[4-Chloro-3-({[(cyclopentyloxy)carbonyl](methyl)amino}methyl)phenyl]-3-(1-methyl-1H-1,2,3-benzotriazol-5-yl)propanoic acid]: the EC50 fell in the range of 1000 to 10000 nM. As to `CCC(C)OC(=O)N(C)Cc1cc(C(CC(=O)O)c2ccc3c(c2)nnn3C)ccc1Cl` (centres unmarked) [Example 3, 3-[3-({[(Butan-2-yloxy)carbonyl](methyl)amino}methyl)-4-chlorophenyl]-3-(1-methyl-1H-1,2,3-benzotriazol-5-yl)propanoic acid], the EC50 is 1000 to 10000 nM. Under `COc1cc(C(CC(=O)O)c2ccc(C)c(CN(C)C(=O)OC(C)(C)C)c2)cc2nnn(C)c12` (centres unmarked) [Example 4, 3-[3-({[(tert-Butoxy)carbonyl](methyl)amino}methyl)-4-methylphenyl]-3-(7-methoxy-1-methyl-1H-1,2,3-benzotriazol-5-yl)propanoic acid] stands 1000 to 10000 nM. Under `CN(Cc1cc(C(CC(=O)O)c2ccc3c(c2)nnn3C)ccc1Cl)C(=O)OC1CCCCC1` (centres unmarked) [Example 5, 3-(4-Chloro-3-((((cyclohexyloxy)carbonyl)(methyl)amino)methyl)phenyl)-3-(1-methyl-1H-benzo[d][1,2,3]triazol-5-yl)propanoic acid] stands 1000 to 10000 nM.

As for `COc1cc(C(CC(=O)O)c2ccc(Cl)c(CN(C)C(=O)OC(C)(C)C)c2)cc2nnn(C)c12` (centres unmarked) [Example 6, 3-(3-(((tert-Butoxycarbonyl)(methyl)amino)methyl)-4-chlorophenyl)-3-(7-methoxy-1-methyl-1H-benzo[d][1,2,3]triazol-5-yl)propanoic acid], the EC50 lay within 100 to 1000 nM. Consider `Cc1ccc(C(CC(=O)O)c2ccc3c(c2)nnn3C)cc1OCC(=O)N(C)C` (centres unmarked) [Example 7, 3-(3-(2-(Dimethylamino)-2-oxoethoxy)-4-methylphenyl)-3-(1-methyl-1H-benzo[d][1,2,3]triazol-5-yl)propanoic acid], for which the concentration giving a half-maximal response (EC50) fell in the range of 1000 to 10000 nM. With `Cc1ccc(C(CC(=O)O)c2ccc3c(nnn3C)c2C)cc1CN(C)C(=O)Oc1ccc([N+](=O)[O-])cc1` (centres unmarked) [Example 8, 3-(1,4-Dimethyl-1H-benzo[d][1,2,3]triazol-5-yl)-3-(4-methyl-3-((methyl((4-nitrophenoxy)carbonyl)amino)methyl)phenyl)propanoic acid], the EC50 is 1000 to 10000 nM. Consider `COc1cc(C(CC(=O)O)c2ccc(Cl)c(CN(C)C(=O)OC3CCCC3)c2)cc2nnn(C)c12` (centres unmarked) [Example 9, 3-(4-Chloro-3-((((cyclopentyloxy)carbonyl)(methyl)amino)methyl)phenyl)-3-(7-methoxy-1-methyl-1H-benzo[d][1,2,3]triazol-5-yl)propanoic acid], for which the EC50 was 1000 to 10000 nM. The value for `COCC(C)(C)OC(=O)N(C)Cc1cc(C(CC(=O)O)c2ccc3c(nnn3C)c2C)ccc1C` (centres unmarked) [Example 10] was 1000 to 10000 nM; that for `CC(=O)N(Cc1cc(C(CC(=O)O)c2ccc3c(nnn3C)c2C)ccc1C)CC1CCCCC1` (centres unmarked) [Example 11, 3-(3-((N-(Cyclohexylmethyl)acetamido)methyl)-4-methylphenyl)-3-(1,4-dimethyl-1H-benzo[d][1,2,3]triazol-5-yl)propanoic acid] was 1000 to 10000 nM.

In the case of `CC(=O)N(Cc1ccccc1)Cc1cc(C(CC(=O)O)c2ccc3c(nnn3C)c2C)ccc1C` (centres unmarked) [Example 12, 3-(3-((N-Benzylacetamido)methyl)-4-methylphenyl)-3-(1,4-dimethyl-1H-benzo[d][1,2,3]triazol-5-yl)propanoic acid], the EC50 lay within 1000 to 10000 nM.

For `CC(=O)N(Cc1cccc(C)c1)Cc1cc(C(CC(=O)O)c2ccc3c(nnn3C)c2C)ccc1C` (centres unmarked) [Example 13, 3-(1,4-Dimethyl-1H-benzo[d][1,2,3]triazol-5-yl)-3-(4-methyl-3-((N-(3-methylbenzyl)acetamido)methyl)phenyl)propanoic acid], the EC50 was in the range of 1000 to 10000 nM. The value for `CC(=O)N(Cc1cc(C(CC(=O)O)c2ccc3c(nnn3C)c2C)ccc1C)Cc1cccc(C)c1C` (centres unmarked) [Example 14, 3-(1,4-Dimethyl-1H-benzo[d][1,2,3]triazol-5-yl)-3-(3-((N-(2,3-dimethylbenzyl)acetamido)methyl)-4-methylphenyl)propanoic acid] was 1000 to 10000 nM. The value for `COc1ccc(CN(Cc2cc(C(CC(=O)O)c3ccc4c(nnn4C)c3C)ccc2C)C(C)=O)cc1` (centres unmarked) [Example 15, 3-(1,4-Dimethyl-1H-benzo[d][1,2,3]triazol-5-yl)-3-(3-((N-(4-methoxybenzyl)acetamido)methyl)-4-methylphenyl)propanoic acid] was 1000 to 10000 nM; that for `CCc1ccc(CN(Cc2cc(C(CC(=O)O)c3ccc4c(nnn4C)c3C)ccc2C)C(C)=O)cc1` (centres unmarked) [Example 16, 3-(1,4-Dimethyl-1H-benzo[d][1,2,3]triazol-5-yl)-3-(3-((N-(4-ethylbenzyl)acetamido)methyl)-4-methylphenyl)propanoic acid] was 1000 to 10000 nM.

Consider `CCC1CCC(CN(Cc2cc(C(CC(=O)O)c3ccc4c(nnn4C)c3C)ccc2C)C(C)=O)CC1` (centres unmarked) [Example 17, 3-(1,4-Dimethyl-1H-benzo[d][1,2,3]triazol-5-yl)-3-(3-((N-((4-ethylcyclohexyl)methyl)acetamido)methyl)-4-methylphenyl)propanoic acid], for which the EC50 is 10 to 100 nM.

As for `Cc1ccc(C(CC(=O)O)c2ccc3c(nnn3C)c2C)cc1CN(CC1CCCCC1)C(N)=O` (centres unmarked) [Example 18, 3-(3-((1-(Cyclohexylmethyl)ureido)methyl)-4-methylphenyl)-3-(1,4-dimethyl-1H-benzo[d][1,2,3]triazol-5-yl)propanoic acid], the EC50 is 1000 to 10000 nM. On to `CCC1CCC(CN(Cc2cc(C(CC(=O)O)c3ccc4c(nnn4C)c3C)ccc2C)C(N)=O)CC1` (centres unmarked) [Example 19, 3-(1,4-Dimethyl-1H-benzo[d][1,2,3]triazol-5-yl)-3-(3-((1-((4-ethylcyclohexyl)methyl)ureido)methyl)-4-methylphenyl)propanoic acid], for which the EC50 lay in the range of 1000 to 10000 nM.

Consider `COc1cc(C(CC(=O)O)c2ccc(C)c(CN(CC3CCCCC3)C(C)=O)c2)cc2nnn(C)c12` (centres unmarked) [Example 20, 3-(3-((N-(Cyclohexylmethyl)acetamido)methyl)-4-methylphenyl)-3-(7-methoxy-1-methyl-1H-benzo[d][1,2,3]triazol-5-yl)propanoic acid], for which the EC50 is 100 to 1000 nM. Under `CCC1CCC(CN(Cc2cc(C(c3ccc4c(nnn4C)c3C)C(C)(C)C(=O)O)ccc2C)C(N)=O)CC1` (centres unmarked) [Example 22, 3-(1,4-Dimethyl-1H-benzo[d][1,2,3]triazol-5-yl)-3-(3-((1-((4-ethylcyclohexyl)methyl)ureido)methyl)-4-methylphenyl)-2,2-dimethylpropanoic acid] stands 1 to 10 nM; under `Cc1ccc([C@@H](c2ccc3c(nnn3C)c2C)C(C)(C)C(=O)O)cc1CN(CC1CCCCCC1)C(N)=O` [Example 23, (S)-3-(3-((1-(Cycloheptylmethyl)ureido)methyl)-4-methylphenyl)-3-(1,4-dimethyl-1H-benzo[d][1,2,3]triazol-5-yl)-2,2-dimethylpropanoic acid], 1 to 10 nM; under `CCC1CCC(O)(CN(Cc2cc([C@@H](c3ccc4c(nnn4C)c3C)C(C)(C)C(=O)O)ccc2C)C(N)=O)CC1` (stereo partly drawn) [Example 24, (S)-3-(1,4-Dimethyl-1H-benzo[d][1,2,3]triazol-5-yl)-3-(3-((1-((4-ethyl-1-hydroxycyclohexyl)methyl)ureido)methyl)-4-methylphenyl)-2,2-dimethylpropanoic acid], 10 to 100 nM. The value for `Cc1ccc([C@@H](c2ccc3c(nnn3C)c2C)C(C)(C)C(=O)O)cc1CN(CC1(O)CCCCCC1)C(N)=O` [Example 25, (S)-3-(1,4-Dimethyl-1H-benzo[d][1,2,3]triazol-5-yl)-3-(3-((1-((1-hydroxycycloheptyl)methyl)ureido)methyl)-4-methylphenyl)-2,2-dimethylpropanoic acid] was 100 to 1000 nM; that for `CC(=O)N(Cc1cc(C(c2ccc3c(nnn3C)c2C)C(C)(C)C(=O)O)ccc1C)CC1(O)CCCCC1` (centres unmarked) [Example 26, 3-(1,4-Dimethyl-1H-benzo[d][1,2,3]triazol-5-yl)-3-(3-((N-((1-hydroxycyclohexyl)methyl)acetamido)methyl)-4-methylphenyl)-2,2-dimethylpropanoic acid] was 100 to 1000 nM; that for `CC(=O)N(Cc1cc(C(CC(=O)O)c2ccc3c(nnn3C)c2C)ccc1C)CC1CCCCCC1` (centres unmarked) [Example 27, 3-(3-((N-(Cycloheptylmethyl)acetamido)methyl)-4-methylphenyl)-3-(1,4-dimethyl-1H-benzo[d][1,2,3]triazol-5-yl)propanoic acid] was 100 to 1000 nM.
